In patent US20250122222A1, “HETEROCYCLIC COMPOUNDS AND METHODS OF USE” (AMGEN INC., priority 2021, published 2025) one finds IC50 data, which are given here for 22 molecules.

pIC50: −log10 of the molar value.

The subject of test [1] is Phosphorylation of ERK1/2 in AsPC-1 cells. Put plainly: Phospho-ERK1/2 MSD assay. In kind it is cell-based. Particulars: Homo sapiens, ASPC1, read-out: 2 h p-ERK (AsPC-1 cells), IC50 (μM), 2 hours compound treatment. Here is the method:
Sixteen hours prior to compound treatment, AsPC-1 cells were seeded in 96-well cell culture plates at a density of 25,000 cells/well and incubated at 37° C., 5% CO2. A compound dose-response titration was diluted in growth media, added to appropriate wells of a cell culture plate, and then incubated at 37° C., 5% CO2 for 2 hours.

Test [2] deals with His-tagged KRAS G12D protein (Homo sapiens, UniProt P01116, G12D). The test is described as follows: KRAS G12D TR-FRET assay (binding). Particulars: biotinylated KRPep-2d substrate, GDP in assay buffer. On the technique in general: TR-FRET usually uses a lanthanide donor and a delayed reading to cut background.
His-tagged KRAS G12D protein, sequence (P01116 1-188 isoform P01116-2 G12D): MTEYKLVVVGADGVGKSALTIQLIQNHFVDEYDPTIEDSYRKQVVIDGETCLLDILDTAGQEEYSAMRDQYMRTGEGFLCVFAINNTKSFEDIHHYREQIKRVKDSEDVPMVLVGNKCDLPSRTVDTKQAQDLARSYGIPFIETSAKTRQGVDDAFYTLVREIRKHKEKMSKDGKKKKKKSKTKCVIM
Procedure: The plate was incubated for 30 minutes at room temperature. Biotinylated KRPep-2d substrate (Amgen) was diluted to 20 nM in Assay Buffer and 2 L was added to all wells and incubated for 1 hour at room temperature. Detection Reagent (0.4 nM LANCE Eu-W1024 Anti-6xHis (Perkin Elmer AD0401), 5 nM streptavidin-d^2 (Cisbio 610SADLA)) was prepared in Assay Buffer, then 4 μL was added to the plate and incubated for 1 hour at room temperature.

Regarding `CCc1cccc2cc(O)cc(-c3ncc4c(N5C[C@H]6COC[C@@H](C5)O6)nc(OC[C@@]56CCCN5C[C@H](F)C6)nc4c3F)c12` [Example 23, 4-(4-((1R,5S)-3,9-Dioxa-7-azabicyclo[3.3.1]nonan-7-yl)-8-fluoro-2-(((2R,7aS)-2-fluorotetrahydro-1H-pyrrolizin-7a(5H)-yl)methoxy)pyrido [4,3-d]pyrimidin-7-yl)-5-ethylnaphthalen-2-ol], the IC50 (commonly the concentration needed to halve the response being measured) in test [1] came to 1.15 µM. Moreover, in test [2], the pIC50 – broadly, the negative decadic logarithm of the IC50, by convention in mol/L – is 7.54.
For `CCc1c(F)ccc2cc(O)cc(-c3ncc4c(N5CCCS(=N)(=O)CC5)nc(OC[C@@]56CCCN5C[C@H](F)C6)nc4c3F)c12` (stereo partly drawn) [Example 38, 4-(7-(8-Ethyl-7-fluoro-3-hydroxynaphthalen-1-yl)-8-fluoro-2-(((2R,7aS)-2-fluorotetrahydro-1H-pyrrolizin-7a(5H)-yl)methoxy)pyrido[4,3-d]pyrimidin-4-yl)-1-imino-1 λ^6,4-thiazepane 1-oxide] the same measures were greater than 10 µM and 7.68.
In the case of `CCc1c(F)ccc2cc(O)cc(-c3ncc4c(N5CCCOC(CO)C5)nc(OC[C@@]56CCCN5C[C@H](F)C6)nc4c3F)c12` (single isomer, unassigned) [Example 48], the 50% inhibitory concentration (IC50) in test [1] was found to be 1.05 µM. In addition, the pIC50 in test [2] was 8.00.
Take `CCc1c(F)ccc2cc(O)cc(-c3ncc4c(N5CC6CC(C#N)C(C5)O6)nc(OC[C@@]56CCCN5C[C@H](F)C6)nc4c3F)c12` (single isomer, unassigned) [Example 72]: the IC50 in test [1] is 0.308 µM. The molecule also showed a pIC50 in test [2] of 8.22.
For `Oc1cc(-c2ncc3c(N4CCCOCC4)nc(OCC45CCCN4CCC5)nc3c2F)c2ccccc2c1` [Example 13, 4-(8-Fluoro-4-(1,4-oxazepan-4-yl)-2-((tetrahydro-1H-pyrrolizin-7a(5H)-yl)methoxy)pyrido [4,3-d]pyrimidin-7-yl)naphthalen-2-ol] the same measures were 4.18 µM and 7.96.
Turning to `CCc1cccc2cc(O)cc(-c3ncc4c(N5CCCOCC5)nc(OC[C@@]56CCCN5C[C@H](F)C6)nc4c3F)c12` [Example 2, 5-Ethyl-4-(8-fluoro-2-(((2R,7aS)-2-fluorotetrahydro-1H-pyrrolizin-7a(5H)-yl)methoxy)-4-(1,4-oxazepan-4-yl)pyrido[4,3-d]pyrimidin-7-yl)naphthalen-2-ol], the IC50 in test [1] was 0.033 µM. Moreover, in test [2], the pIC50 is 9.00.
For `C#Cc1cccc2cc(O)cc(-c3ncc4c(N5CCCOCC5)nc(OC[C@@H]5C[C@@H](F)CN5C)nc4c3F)c12` [Example 12, 5-Ethynyl-4-(8-fluoro-2-(((2S,4R)-4-fluoro-1-methylpyrrolidin-2-yl)methoxy)-4-(1,4-oxazepan-4-yl)pyrido[4,3-d]pyrimidin-7-yl)naphthalen-2-ol] the same measures were 0.131 µM and 8.40.
For `CCc1c(F)ccc2cc(O)cc(-c3ncc4c(N5CCOCC(O)(CC)C5)nc(OC[C@@]56CCCN5C[C@H](F)C6)nc4c3F)c12` (stereo partly drawn) [Example 73, 6-Ethyl-4-(7-(8-ethyl-7-fluoro-3-hydroxynaphthalen-1-yl)-8-fluoro-2-(((2R,7aS)-2-fluorotetrahydro-1H-pyrrolizin-7a(5H)-yl)methoxy)pyrido[4,3-d]pyrimidin-4-yl)-1,4-oxazepan-6-ol] the same measures were 0.063 µM and 8.52.
For `Oc1cc(Cl)c(C2CC2)c(-c2ncc3c(N4CCCOCC4)nc(OC[C@@]45CCCN4C[C@H](F)C5)nc3c2F)c1` [Example 18, 3-Chloro-4-cyclopropyl-5-(8-fluoro-2-(((2R,7aS)-2-fluorotetrahydro-1H-pyrrolizin-7a(5H)-yl)methoxy)-4-(1,4-oxazepan-4-yl)pyrido[4,3-d]pyrimidin-7-yl)phenol], the concentration for half-maximal inhibition (IC50) in test [1] was determined as 0.162 µM. Moreover, the pIC50 in test [2] was 8.70.
For `CCc1c(F)ccc2cc(O)cc(-c3ncc4c(N5CCO[C@H](C)C5)nc(OC[C@@]56CCCN5C[C@H](F)C6)nc4c3F)c12` [Example 52, 5-Ethyl-6-fluoro-4-(8-fluoro-2-(((2R,7aS)-2-fluorotetrahydro-1H-pyrrolizin-7a(5H)-yl)meth-oxy)-4-((R)-2-methylmorpho-lino)-pyrido[4,3-d]pyrimidin-7-yl)-naphthalen-2-ol] the same measures were 1.28 µM and 7.48.
`CCc1c(F)ccc2cc(O)cc(-c3ncc4c(N5CCOCC(C(N)=O)C5)nc(OC[C@@]56CCCN5C[C@H](F)C6)nc4c3F)c12` (single isomer, unassigned) [Example 47]: the IC50 in test [1] was 1.47 µM. In addition, the pIC50 in test [2] is 8.52.
For `CCc1c(F)ccc2cc(O)cc(-c3ncc4c(N5CCOC(CO)CC5)nc(OC[C@@]56CCCN5C[C@H](F)C6)nc4c3F)c12` (stereo partly drawn) [Example 57, 5-Ethyl-6-fluoro-4-(8-fluoro-2-(((2R, 7aS)-2-fluorotetra-hydro-1H-pyrrolizin-7a(5H)-yl)methoxy)-4-(7-(hydroxymeth-yl)-1,4-oxazepan-4-yl)pyrido[4,3-d]pyrimidin-7-yl)-naphthalen-2-ol] the same measures were 5.95 µM and 7.89.
For `CCc1c(F)ccc2cc(O)cc(-c3ncc4c(N5CCOCC(S(N)(=O)=O)C5)nc(OC[C@@]56CCCN5C[C@H](F)C6)nc4c3F)c12` (stereo partly drawn) [Example 63, 4-(7-(8-Ethyl-7-fluoro-3-hydroxy-naphthalen-1-yl)-8-fluoro-2-(((2R,7aS)-2-fluorotetrahydro-1H-pyrrolizin-7a(5H)-yl)meth-oxy)pyrido[4,3-d]pyrimidin-4-yl)-1,4-oxazepane-6-sulfonamide] the same measures were 1.38 µM and 8.30.
For `Oc1cc(Cl)c(C2CC2)c(-c2ncc3c(N4CCCOCC4)nc(OCC4(CN5CCOCC5)CC4)nc3c2F)c1` [Example 22, 3-Chloro-4-cyclopropyl-5-(8-fluoro-2-((1-(morpholinomethyl)cyclopropyl)methoxy)-4-(1,4-oxazepan-4-yl)pyrido[4,3-d]pyrimidin-7-yl)phenol] the same measures were 1.29 µM and 7.96.
With `Oc1cc(-c2ncc3c(N4C[C@H]5COC[C@@H](C4)O5)nc(OC[C@@]45CCCN4C[C@H](F)C5)nc3c2F)c2c(F)c(F)ccc2c1` [Example 19, 4-(4-((1R,5S)-3,9-Dioxa-7-azabicyclo[3.3.1]nonan-7-yl)-8-fluoro-2-(((2R,7aS)-2-fluorotetrahydro-1H-pyrrolizin-7a(5H)-yl)methoxy)pyrido [4,3-d]pyrimidin-7-yl)-5,6-difluoronaphthalen-2-ol], the half-inhibitory concentration (IC50) in test [1] worked out at 1.1 µM. This molecule showed a pIC50 in test [2] of 8.05.
For `CCc1c(F)ccc2cc(O)cc(-c3ncc4c(N5CC6CC5CS6(=O)=O)nc(OC[C@@]56CCCN5C[C@H](F)C6)nc4c3F)c12` (stereo partly drawn) [Example 59, 5-(7-(8-Ethyl-7-fluoro-3-hydroxy-naphthalen-1-yl)-8-fluoro-2-(((2R,7aS)-2-fluorotetrahydro-1H-pyrrolizin-7a(5H)-yl)meth-oxy)pyrido[4,3-d]pyrimidin-4-yl)-2-thia-5-azabicyclo [2.2.1]heptane 2,2-dioxide] the same measures were 3.63 µM and 7.85.
For `CCc1c(F)ccc2cc(O)cc(-c3ncc4c(N5CCOCC(O)(C6CC6)C5)nc(OC[C@@]56CCCN5C[C@H](F)C6)nc4c3F)c12` (stereo partly drawn) [Example 74, 6-Cyclopropyl-4-(7-(8-ethyl-7-fluoro-3-hydroxynaphthalen-1-yl)-8-fluoro-2-(((2R,7aS)-2-fluorotetrahydro-1H-pyrrolizin-7a(5H)-yl)methoxy)pyrido[4,3-d]pyrimidin-4-yl)-1,4-oxazepan-6-ol] the same measures were 0.436 µM and 8.40.
For `CCc1c(F)ccc2cc(O)cc(-c3ncc4c(N5[C@@H]6CC[C@H]5COC6)nc(OC[C@@]56CCCN5C[C@H](F)C6)nc4c3F)c12` [Example 6, 4-(4-((1R,5S)-3-Oxa-8-azabicyclo[3.2.1]octan-8-yl)-8-fluoro-2-(((2R,7aS)-2-fluorotetrahydro-1H-pyrrolizin-7a(5H)-yl)methoxy)pyrido [4,3-d]pyrimidin-7-yl)-5-ethyl-6-fluoronaphthalen-2-ol] the same measures were 1.77 µM and 7.16.
As for `CCc1c(F)ccc2cc(O)cc(-c3ncc4c(N5CCOCC5)nc(OC[C@@]56CCCN5C[C@H](F)C6)nc4c3F)c12` [Example 24, 5-Ethyl-6-fluoro-4-(8-fluoro-2-(((2R,7aS)-2-fluorotetrahydro-1H-pyrrolizin-7a(5H)-yl)methoxy)-4-morpholinopyrido [4,3-d]pyrimidin-7-yl)naphthalen-2-ol], the IC50 in test [1] came to 0.586 µM. The negative-log IC50 (pIC50) in test [2] is 7.96.
As for `CCc1c(F)ccc2cc(O)cc(-c3ncc4c(N5CCOC(C(N)=O)C5)nc(OC[C@@]56CCCN5C[C@H](F)C6)nc4c3F)c12` (stereo partly drawn) [Example 76, 4-(7-(8-Ethyl-7-fluoro-3-hydroxynaphthalen-1-yl)-8-fluoro-2-(((2R,7aS)-2-fluorotetrahydro-1H-pyrrolizin-7a(5H)-yl)methoxy)pyrido[4,3-d]pyrimidin-4-yl)morpholine-2-carboxamide], the IC50 in test [1] turned out to be 3.33 µM. Besides, the pIC50 in test [2] was 8.22.
With `CCc1c(F)ccc2cc(O)cc(-c3ncc4c(N5CCC[S+]([O-])CC5)nc(OC[C@@]56CCCN5C[C@H](F)C6)nc4c3F)c12` (stereo partly drawn) [Example 36, 4-(7-(8-Ethyl-7-fluoro-3-hydroxynaphthalen-1-yl)-8-fluoro-2-(((2R,7aS)-2-fluorotetrahydro-1H-pyrrolizin-7a(5H)-yl)methoxy)pyrido[4,3-d]pyrimidin-4-yl)-1,4-thiazepane 1-oxide], the IC50 in test [1] is 0.651 µM. In addition, in test [2], the pIC50 is 9.00.
As for `CCc1c(F)ccc2cc(O)cc(-c3ncc4c(N5CCOC6CC65)nc(OC[C@@]56CCCN5C[C@H](F)C6)nc4c3F)c12` (stereo partly drawn) [Example 66, 4-(4-((1R,6S)-2-oxa-5-azabicyclo[4.1.0]heptan-5-yl)-8-fluoro-2-(((2R,7aS)-2-fluorotetrahydro-1H-pyrrolizin-7a(5H)-yl)methoxy)-pyrido[4,3-d]pyrim-idin-7-yl)-5-ethyl-6-fluoronaphthalen-2-ol], the 50% inhibitory concentration (IC50) in test [1] was found to be 0.592 µM. The negative logarithm of the IC50 (pIC50) in test [2] was 7.82.
